Molecular target: T1, KDM5A (Homo sapiens, UniProt P29375)
T1 construct: C-terminal FLAG-tagged KDM5A^1-1090 was purchased from BPS Biosciences; FLAG (C); purchased BPS Biosciences
T1 sequence (P29375 1-1090): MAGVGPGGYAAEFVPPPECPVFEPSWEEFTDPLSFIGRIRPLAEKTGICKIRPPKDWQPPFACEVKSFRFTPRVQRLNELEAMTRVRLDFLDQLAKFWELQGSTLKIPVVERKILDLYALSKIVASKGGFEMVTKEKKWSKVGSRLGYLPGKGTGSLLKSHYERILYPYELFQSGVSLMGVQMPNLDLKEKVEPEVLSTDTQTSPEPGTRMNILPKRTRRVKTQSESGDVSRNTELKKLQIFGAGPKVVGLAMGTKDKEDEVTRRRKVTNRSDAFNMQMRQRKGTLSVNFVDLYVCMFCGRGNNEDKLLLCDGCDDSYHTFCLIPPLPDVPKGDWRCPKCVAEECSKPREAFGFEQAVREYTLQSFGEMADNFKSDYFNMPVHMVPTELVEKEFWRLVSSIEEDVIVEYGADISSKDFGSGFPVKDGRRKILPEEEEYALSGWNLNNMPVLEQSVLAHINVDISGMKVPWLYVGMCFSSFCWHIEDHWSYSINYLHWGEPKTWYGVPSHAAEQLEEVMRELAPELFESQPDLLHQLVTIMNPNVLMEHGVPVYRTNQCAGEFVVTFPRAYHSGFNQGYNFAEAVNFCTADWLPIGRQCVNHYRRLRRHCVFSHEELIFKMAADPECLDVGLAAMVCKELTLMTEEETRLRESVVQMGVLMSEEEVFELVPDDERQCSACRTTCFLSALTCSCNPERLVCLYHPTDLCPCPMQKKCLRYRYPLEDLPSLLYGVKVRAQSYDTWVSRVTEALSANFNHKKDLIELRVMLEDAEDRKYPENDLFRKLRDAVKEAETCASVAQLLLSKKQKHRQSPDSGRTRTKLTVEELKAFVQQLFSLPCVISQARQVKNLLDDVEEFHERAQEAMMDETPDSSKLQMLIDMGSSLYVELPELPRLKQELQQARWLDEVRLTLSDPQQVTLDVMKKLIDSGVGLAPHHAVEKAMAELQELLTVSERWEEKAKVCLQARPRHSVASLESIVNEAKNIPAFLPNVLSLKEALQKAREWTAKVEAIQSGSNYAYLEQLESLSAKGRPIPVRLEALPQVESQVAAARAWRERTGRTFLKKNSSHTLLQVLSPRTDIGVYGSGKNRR
Assay: KDM5A Assay (SAMDI mass spectrometry demethylase assay)
Assay type: biochemical
Details: C-terminal FLAG-tagged KDM5A 1-1090; class symbols; read-out: 5A IC50
How it was run: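 FLAG-tagged KDM5A 1-1090 (20 nM) preincubated 30 min with compound in pH 8.0 HEPES buffer with ascorbate, Fe(II), TCEP, then reacted 150 min at 25 °C with H3K4me3 peptide (250 nM) and 2-oxoglutarate (15 μM). Formic acid-quenched; SAMDI-MS substrate/product AUC conversion; IC50 from dose-response.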

Structure (SMILES)	IC50
Cn1ncc(-c2cccc(F)c2)c1Nc1cnccc1C(=O)O [Compound 10, 3-((4-(3-Fluorophenyl)-1-methyl-1H-pyrazol-5-yl)amino) isonicotinic acid]	10 to 100 µM
O=C(O)c1ccncc1Nc1nn(CCN2CCC(F)(F)CC2)cc1C1CCCCC1 [Compound 57, 3-((4-cyclohexyl-1-(2-(4,4-difluoropiperidin-1-yl)ethyl)-1H-pyrazol-3-yl)amino)isonicotinic acid]	0.1 to 1 µM
O=C(O)c1ccncc1Nc1cc(-c2ccccc2)nn1[C@H]1CC[C@@H](O)CC1 [Compound 40, 3-((1-((cis)-4-Hydroxycyclohexyl)-3-phenyl-1H-pyrazol-5-yl)amino)isonicotinic acid]	1 to 10 µM
Cc1nn(C2CCCNCC2)cc1Nc1cnccc1C(=O)O (single isomer, unassigned) [Compound 114]	0.1 to 1 µM
Cc1n[nH]c(-c2ccccc2)c1Nc1cnccc1C(=O)O [Compound 55, 3-((5-methyl-3-phenyl-1H-pyrazol-4-yl)amino)isonicotinic acid]	1 to 10 µM
O=C(O)c1ccncc1Nc1cnn(CCN2CCC(F)(F)CC2)c1-c1ccccc1 [Compound 18, 3-((1-(2-(4,4-difluoropiperidin-1-yl)ethyl)-5-phenyl-1H-pyrazol-4-yl)amino)isonicotinic acid]	1 to 10 µM
Cn1ncc(-c2ccc(F)cc2)c1Nc1cnccc1C(=O)O [Compound 8, 3-((4-(4-fluorophenyl)-1-methyl-1H-pyrazol-5-yl)amino) isonicotinic acid]	10 to 100 µM
O=C(O)c1ccncc1Nc1cn(-c2ccccc2)nc1-c1ccccc1 [Compound 41, 3-((1,3-Diphenyl-1H-pyrazol-4-yl)amino)isonicotinic acid]	1 to 10 µM
O=C(O)c1ccncc1Nc1nn(CCC(F)(F)F)cc1-c1ccccc1 [Compound 73, 3-((4-phenyl-1-(3,3,3-trifluoropropyl)-1H-pyrazol-3-yl)amino) isonicotinic acid]	0.001 to 0.1 µM
Cc1c(Nc2cnccc2C(=O)O)cnn1C1CCN(C(=O)c2ccccc2)CC1 [Compound 98, 3-(1-(1-benzoylpiperidin-4-yl)-5-methyl-1H-pyrazol-4-ylamino) isonicotinic acid]	1 to 10 µM

— patent publication US20170291890A1 (Epizyme, Inc., priority 2014, published 2017)
